Laboratory results published in BigSolDB 2.1.

O=C1NS(=O)(=O)c2ccccc21
solubility (mole fraction)
Conditions | 293.15 K | 298.15 K | 303.15 K | 308.15 K | 313.15 K | 318.15 K | 323.15 K
in acetonitrile | 0.00739 | 0.00809 | 0.00936 | 0.0105 | 0.012 | 0.0143 | 0.0157
in ethanol | 0.00821 | 0.00924 | 0.0108 | 0.0121 | 0.0144 | 0.0169 | 0.0196
in isopropanol | 0.00792 | 0.00942 | 0.011 | 0.013 | 0.016 | 0.0193 | 0.0231
in methanol | 0.00927 | 0.0102 | 0.012 | 0.0136 | 0.0161 | 0.0187 | 0.0218
